Assay results from patent publication US20040023892A1, “Pharmaceutical composition based on a non-steroid anti-inflammatory agent” (priority 2002, published 2004).
Marks after values point to notes of the source that are not given here. Values belong to the compound of their own block, whether it stands above or below them.

Experiments:
[1] = test system: inflammatory swelling of paw of mice after introduction of carragenin; test: Inflammatory swelling of paw of mice after introduction of carragenin; type: in vivo; settings: dose mg/kg; for swelling of paw of mice after introduction of carragenine: Table 4, Control: NAIA alone; for Increase of Mass of Limb / Suppression of Swelling, % to Control: preparation alone, into stomach once a day 5 days, 3.5 hours after carragenin; for swelling of paw of mice after introduction of carragenin: the values are: increase of paw mass
Procedure: Tests were performed on breedless white mice-males with mass 22-24 g. The investigated preparations were introduced to animals through a probe into stomach once a day during five days in form of suspension on 1% starch mucous or aqueous solution.
In one hour after the last introduction of preparations, mice were injected with 0.05 ml of 1% of solution of carragenin in isotonic solution of sodium chloride, under aneurism of right rear paw. After 3.5 hours, on a peak of inflammation, they were killed by dislocation of a neck area of spine. Swollen and healthy paws were compared, and a degree of suppression of swelling was determined in test groups when compared with a control group in accordance with the formula:
Increase of mass of paw in control-increase of mass of paw in test ______ 100 increase of mass of paw in control.
Tests were performed on breedless white mice-males with mass 22-26 g.

[2] = test system: breedless mice-male; test: Acute toxicity of ASA (LD50) with carbohydrate or sorbent; type: in vivo; settings: relative to LD50 of ASA alone
Procedure: Tests were conducted on breedless mice-male with mass 22-26 g. Acute toxicity of ASA was evaluated in accordance with the value LD50 (dose from which 50% of animals perish) of composition containing ACA plus carbohydrate or sorbent with ratio 4:1 when compared with LD50 ASA. Preparations were introduced one time intostomach in form of aqueous suspension with doses 350-3000 mg/kg to groups of six mice. Observations were conducted during 14 days. As a substance which has absorbing properties there were used activated carbon, white clay (caolin), aluminum hydroxide, magnium tricilicate, hydroxylapatite, microcrystaalline cellulose (MCC). As carbohydrates there were used monosaccarides-glucose and fructose, disaccaride-saccarose and lactose, and polysaccaride-potato starch. Results of experiments were processed in accordance with the method of Lichfield-Wilkoxon (Belensky, M. L. “Elements of quantitative evaluation of pharmacological effect,” second edition, redone and added, L, Medgiz, 1963, 152 p).
LD50 composition were counted on ASA (tables 7, 8).

[3] = test system: ambulatory patients; test: Clinical investigation of side effects of NAIA combinations with carbohydrates or sorbents
[4] = test system: ambulatory patients; settings: human, in vivo
[5] = 0.25 g with succinate of ammonium 0.1 g and activated carbon (0.35 g), two times a day 8 weeks

Compound: CC(=O)Oc1ccccc1C(=O)O [ASA, acetyl salicylic acid]
- swelling of paw of mice after introduction of carragenine ([1]; N = 10): 41.3*
- Increase of Toxicity In [2]: 0
- better taking of mixture ASA and ammonium succinate [3, 5]: Four from five
- dyspeptic phenomena [3, 5]: all 5 exhibited dyspeptic phenomena to a lesser degree

Compound: CCCCC1C(=O)N(c2ccccc2)N(c2ccccc2)C1=O [BN, butadion]
- swelling of paw of mice after introduction of carragenine ([1]; N = 10): 32.4*

Compound: O=C(O)/C=C/C(=O)O [FUM, fumaric]
- Increase of Mass of Limb ([1]; n = 10): 59.3 ± 5.5 mg
- Suppression of Swelling, % to Control ([1]; n = 10): −1.3 % to Control

Compound: NCC(=O)O [GLy, glycin]
- Increase of Mass of Limb ([1]; n = 10): 63.0 ± 5.5 mg
- Suppression of Swelling, % to Control ([1]; n = 10): +4.8 % to Control

Compound: COc1ccc2c(c1)c(CC(=O)O)c(C)n2C(=O)c1ccc(Cl)cc1 [IM, indometatsin]
- swelling of paw of mice after introduction of carragenine ([1]; N = 10): 19.0*
- patients needing antyhistamine substances for reduction of allergenic phenomena ([3]; 0.05 g with 0.25 g karsil, group which did not receive sorbent): one more patient needed antyhistamine substances
- patients forced to stop taking preparation because of strong headaches in epigastric, vomiting ([3]; 0.05 g with 0.25 g karsil, group which did not receive sorbent, after the third week): 1 patient
- side effects of indometnacyne, in particular dispeptic phenomena, dizziness, headaches ([3]; 0.05 g with 0.25 g karsil, together with microcrystalline cellulose 1:2, 5 weeks, versus without sorbent): to a lesser degree

Compound: O=c1c(O)c(-c2ccc(O)c(O)c2)oc2cc(O)cc(O)c12 [KV, kvertsetin]
- Increase of Mass of Limb ([1]; n = 10): 58.7 ± 3.6 mg
- Suppression of Swelling, % to Control ([1]; n = 10): −2.3 % to Control

Compound: O=C(O)CCCCC1CCSS1 (stereo not drawn) [Lipoic acid LA, lipoic acid]
- Increase of Mass of Limb ([1]; n = 10): 62.3 mg
- Suppression of Swelling, % to Control ([1]; n = 10): +3.7 % to Control

Compound: O=C(O)c1cccnc1Nc1cccc(C(F)(F)F)c1 [NA, niflumic acid]
- swelling of paw of mice after introduction of carragenine ([1]; N = 10): 31.1*

Compound: COc1ccc2cc([C@H](C)C(=O)O)ccc2c1 [NP, naproxen]
- swelling of paw of mice after introduction of carragenine ([1]; N = 10): 28.9*

Compound: CN1C(C(=O)Nc2ccccn2)=C(O)c2ccccc2S1(=O)=O [PK, piroxikam]
- swelling of paw of mice after introduction of carragenin ([1]; Table 2, column Control: NAIA alone, N = 10): 28.8 mg
- swelling of paw of mice after introduction of carragenin ([1]; Table 3, column Control: NAIA alone, n = 10): 28.8 mg
- swelling of paw of mice after introduction of carragenine ([1]; N = 10): 28.8*
- swelling of paw of mice after introduction of carragenin ([1]; Table 5, column Control: NAIA alone, N = 10): 28.8 mg
- Increase of Mass of Limb ([1]; n = 10): 28.8 ± 4.9 mg
- Suppression of Swelling, % to Control ([1]; n = 10): −52.0 % to Control

Compound: N.N.O=C(O)CCC(=O)O [S-NH4, succinate of ammonium]
- Increase of Mass of Limb ([1]; n = 10): 63.5 ± 6.1 mg
- Suppression of Swelling, % to Control ([1]; n = 10): +5.7 % to Control

Compound: N[C@@H](CS)C(=O)O [TIS, tsistein]
- Increase of Mass of Limb ([1]; n = 10): 61.5 ± 6.4 mg
- Suppression of Swelling, % to Control ([1]; n = 10): +2.3 % to Control

Compound: O=C(O)Cc1ccccc1Nc1c(Cl)cccc1Cl [VL, voltaren]
- swelling of paw of mice after introduction of carragenine ([1]; N = 10): 24.3*

- dispeptic phenomenon, headaches, dizziness [4]: less exhibited
- taking of medication [4]: taking medication better
Compound: O=C([O-])Cc1ccccc1Nc1c(Cl)cccc1Cl.[Na+] [ortofen]

Compound: Vitamin B6 [Vit B6]
- Increase of Mass of Limb ([1]; n = 10): 60.5 mg
- Suppression of Swelling, % to Control ([1]; n = 10): +0.7 % to Control

Compound: Vitamin E [Vit E]
- Increase of Mass of Limb ([1]; n = 10): 58.7 mg
- Suppression of Swelling, % to Control ([1]; n = 10): −2.3 % to Control
